{"source": "ChEMBL document CHEMBL4177673", "about": "“Imidazo[1,2-a]pyridin-6-yl-benzamide analogs as potent RAF inhibitors” (Bioorg Med Chem Lett, 2017)", "key": {"[1]": {"molecular_target": "T1, Serine/threonine-protein kinase B-raf (Homo sapiens, UniProt P15056, V600E)", "T1 sequence (P15056 2-766 V600E limits assumed)": "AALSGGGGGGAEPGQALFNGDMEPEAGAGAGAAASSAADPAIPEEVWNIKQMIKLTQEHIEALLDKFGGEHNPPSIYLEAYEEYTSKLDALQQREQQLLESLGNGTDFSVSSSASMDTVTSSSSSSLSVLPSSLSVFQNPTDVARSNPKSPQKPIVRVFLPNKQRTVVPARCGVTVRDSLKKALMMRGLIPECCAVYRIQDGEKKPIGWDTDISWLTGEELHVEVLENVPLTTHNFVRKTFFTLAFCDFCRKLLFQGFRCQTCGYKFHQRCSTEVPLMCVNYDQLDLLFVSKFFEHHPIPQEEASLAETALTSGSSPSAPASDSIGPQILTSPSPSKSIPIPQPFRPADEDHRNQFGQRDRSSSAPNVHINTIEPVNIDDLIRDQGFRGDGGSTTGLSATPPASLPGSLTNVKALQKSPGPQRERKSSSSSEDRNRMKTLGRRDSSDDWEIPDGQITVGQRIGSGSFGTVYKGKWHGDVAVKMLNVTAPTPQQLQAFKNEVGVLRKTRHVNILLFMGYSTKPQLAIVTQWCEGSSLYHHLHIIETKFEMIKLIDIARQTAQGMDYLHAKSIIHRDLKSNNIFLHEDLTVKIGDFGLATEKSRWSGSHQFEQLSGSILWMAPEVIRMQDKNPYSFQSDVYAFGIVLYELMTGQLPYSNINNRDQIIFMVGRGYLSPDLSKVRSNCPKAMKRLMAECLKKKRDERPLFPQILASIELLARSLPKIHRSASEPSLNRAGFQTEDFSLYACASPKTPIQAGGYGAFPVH", "experiment": "Inhibition of recombinant C-terminal his6-tagged B-Raf (437 to 765 residues) V600E mutant (unknown origin) catalytic domain expressed in baculovirus infected Sf21 insect cells using biotinylated Mek substrate preincubated for 60 mins measured after 3 hrs by amplified luminescence proximity homogeneous assay"}, "[2]": {"molecular_target": "T1, Serine/threonine-protein kinase B-raf", "experiment": "Inhibition of B-Raf V600E mutant in human A375 cells assessed as reduction in ERK phosphorylation", "assay_type": "cell-based"}, "A-375": {"system": "A-375", "experiment": "Antiproliferative activity against human A375 cells", "assay_type": "functional, cell-based"}, "MAP kinase p38": {"molecular_target": "MAP kinase p38 (Homo sapiens, UniProt O15264+Q15759+Q16539+P53778)", "experiment": "Inhibition of P38 (unknown origin)", "assay_type": "protein assay"}, "Homo sapiens [3]": {"species": "Homo sapiens", "experiment": "Selectivity ratio of IC50 for P38 (unknown origin) to IC50 for recombinant C-terminal his6-tagged B-Raf (437 to 765 residues) V600E mutant (unknown origin) expressed in baculovirus infected Sf21 insect cells"}, "[4]": {"molecular_target": "Vascular endothelial growth factor receptor 2 (Homo sapiens, UniProt P35968)", "sequence (P35968 whole entry)": "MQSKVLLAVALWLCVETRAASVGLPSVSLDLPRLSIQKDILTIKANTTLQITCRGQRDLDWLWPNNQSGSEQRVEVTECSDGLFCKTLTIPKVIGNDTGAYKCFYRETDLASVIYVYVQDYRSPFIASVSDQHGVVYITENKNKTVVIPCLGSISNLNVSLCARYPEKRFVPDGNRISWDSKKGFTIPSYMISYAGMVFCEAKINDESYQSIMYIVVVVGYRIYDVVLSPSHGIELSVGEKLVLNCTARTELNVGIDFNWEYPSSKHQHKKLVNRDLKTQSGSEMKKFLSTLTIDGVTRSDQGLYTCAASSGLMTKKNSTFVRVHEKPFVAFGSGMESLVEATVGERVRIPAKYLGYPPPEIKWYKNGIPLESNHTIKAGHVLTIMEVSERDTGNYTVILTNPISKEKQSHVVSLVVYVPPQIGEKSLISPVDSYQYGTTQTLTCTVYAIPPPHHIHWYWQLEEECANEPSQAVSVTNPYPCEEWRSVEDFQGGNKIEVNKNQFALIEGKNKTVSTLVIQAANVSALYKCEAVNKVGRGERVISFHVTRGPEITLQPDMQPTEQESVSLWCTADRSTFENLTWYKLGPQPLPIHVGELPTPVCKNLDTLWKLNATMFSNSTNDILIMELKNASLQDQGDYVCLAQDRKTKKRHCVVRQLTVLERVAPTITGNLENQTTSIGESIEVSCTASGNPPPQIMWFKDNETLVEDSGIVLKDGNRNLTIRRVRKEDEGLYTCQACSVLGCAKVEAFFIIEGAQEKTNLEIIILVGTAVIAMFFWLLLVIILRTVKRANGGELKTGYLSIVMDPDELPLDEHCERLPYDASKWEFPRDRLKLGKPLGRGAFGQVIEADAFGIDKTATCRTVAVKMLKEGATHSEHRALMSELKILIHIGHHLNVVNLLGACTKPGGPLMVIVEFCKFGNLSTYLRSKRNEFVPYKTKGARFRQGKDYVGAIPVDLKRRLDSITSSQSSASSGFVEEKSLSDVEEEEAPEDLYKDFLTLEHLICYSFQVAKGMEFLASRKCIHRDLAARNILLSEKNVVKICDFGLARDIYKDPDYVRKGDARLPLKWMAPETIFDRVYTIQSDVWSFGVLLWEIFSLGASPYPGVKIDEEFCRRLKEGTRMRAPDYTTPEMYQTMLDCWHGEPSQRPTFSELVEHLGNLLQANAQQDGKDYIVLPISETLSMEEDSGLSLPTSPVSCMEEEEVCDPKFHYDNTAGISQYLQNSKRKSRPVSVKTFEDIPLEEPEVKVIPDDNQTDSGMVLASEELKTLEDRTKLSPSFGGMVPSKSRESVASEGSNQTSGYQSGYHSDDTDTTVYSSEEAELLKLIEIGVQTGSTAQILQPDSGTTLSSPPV", "experiment": "Inhibition of VEGFR2 (unknown origin)"}, "Homo sapiens [5]": {"species": "Homo sapiens", "experiment": "Selectivity ratio of IC50 for VEGFR2 (unknown origin) to IC50 for recombinant C-terminal his6-tagged B-Raf (437 to 765 residues) V600E mutant (unknown origin) expressed in baculovirus infected Sf21 insect cells"}, "[6]": {"experiment": "Solubility of the compound in PBS at pH 7", "assay_type": "physicochemical"}, "[7]": {"molecular_target": "Platelet-derived growth factor receptor alpha (Homo sapiens, UniProt P16234)", "experiment": "Inhibition of PDGFRalpha (unknown origin)"}, "[8]": {"molecular_target": "Mast/stem cell growth factor receptor Kit (Homo sapiens, UniProt P10721)", "sequence (P10721 whole entry)": "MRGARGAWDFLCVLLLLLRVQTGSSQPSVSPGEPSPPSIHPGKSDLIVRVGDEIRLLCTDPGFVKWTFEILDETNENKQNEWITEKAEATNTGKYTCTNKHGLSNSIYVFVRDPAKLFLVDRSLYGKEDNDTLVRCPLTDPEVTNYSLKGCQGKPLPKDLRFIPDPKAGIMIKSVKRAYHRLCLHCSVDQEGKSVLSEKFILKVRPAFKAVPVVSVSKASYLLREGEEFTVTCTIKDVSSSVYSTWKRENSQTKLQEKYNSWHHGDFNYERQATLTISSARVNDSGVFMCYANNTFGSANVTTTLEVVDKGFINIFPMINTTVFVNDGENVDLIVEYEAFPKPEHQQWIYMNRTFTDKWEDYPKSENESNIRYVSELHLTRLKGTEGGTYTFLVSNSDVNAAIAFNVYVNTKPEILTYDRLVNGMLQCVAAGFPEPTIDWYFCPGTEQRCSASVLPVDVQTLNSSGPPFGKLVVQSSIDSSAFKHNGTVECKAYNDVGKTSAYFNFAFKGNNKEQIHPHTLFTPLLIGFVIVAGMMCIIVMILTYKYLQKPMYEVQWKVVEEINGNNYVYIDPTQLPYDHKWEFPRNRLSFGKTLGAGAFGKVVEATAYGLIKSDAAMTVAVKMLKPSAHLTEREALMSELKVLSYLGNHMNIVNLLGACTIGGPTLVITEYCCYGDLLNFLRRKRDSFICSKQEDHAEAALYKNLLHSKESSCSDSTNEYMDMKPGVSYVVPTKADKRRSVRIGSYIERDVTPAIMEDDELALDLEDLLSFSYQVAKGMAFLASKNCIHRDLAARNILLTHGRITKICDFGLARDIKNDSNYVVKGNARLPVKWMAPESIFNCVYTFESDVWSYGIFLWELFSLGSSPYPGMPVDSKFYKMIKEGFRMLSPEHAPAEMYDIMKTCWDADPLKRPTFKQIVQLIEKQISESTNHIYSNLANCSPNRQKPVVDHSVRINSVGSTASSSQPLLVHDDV", "experiment": "Inhibition of Kit (unknown origin)"}, "Ephrin type-A receptor 4": {"molecular_target": "Ephrin type-A receptor 4 (Homo sapiens, UniProt P54764)", "sequence (P54764 whole entry)": "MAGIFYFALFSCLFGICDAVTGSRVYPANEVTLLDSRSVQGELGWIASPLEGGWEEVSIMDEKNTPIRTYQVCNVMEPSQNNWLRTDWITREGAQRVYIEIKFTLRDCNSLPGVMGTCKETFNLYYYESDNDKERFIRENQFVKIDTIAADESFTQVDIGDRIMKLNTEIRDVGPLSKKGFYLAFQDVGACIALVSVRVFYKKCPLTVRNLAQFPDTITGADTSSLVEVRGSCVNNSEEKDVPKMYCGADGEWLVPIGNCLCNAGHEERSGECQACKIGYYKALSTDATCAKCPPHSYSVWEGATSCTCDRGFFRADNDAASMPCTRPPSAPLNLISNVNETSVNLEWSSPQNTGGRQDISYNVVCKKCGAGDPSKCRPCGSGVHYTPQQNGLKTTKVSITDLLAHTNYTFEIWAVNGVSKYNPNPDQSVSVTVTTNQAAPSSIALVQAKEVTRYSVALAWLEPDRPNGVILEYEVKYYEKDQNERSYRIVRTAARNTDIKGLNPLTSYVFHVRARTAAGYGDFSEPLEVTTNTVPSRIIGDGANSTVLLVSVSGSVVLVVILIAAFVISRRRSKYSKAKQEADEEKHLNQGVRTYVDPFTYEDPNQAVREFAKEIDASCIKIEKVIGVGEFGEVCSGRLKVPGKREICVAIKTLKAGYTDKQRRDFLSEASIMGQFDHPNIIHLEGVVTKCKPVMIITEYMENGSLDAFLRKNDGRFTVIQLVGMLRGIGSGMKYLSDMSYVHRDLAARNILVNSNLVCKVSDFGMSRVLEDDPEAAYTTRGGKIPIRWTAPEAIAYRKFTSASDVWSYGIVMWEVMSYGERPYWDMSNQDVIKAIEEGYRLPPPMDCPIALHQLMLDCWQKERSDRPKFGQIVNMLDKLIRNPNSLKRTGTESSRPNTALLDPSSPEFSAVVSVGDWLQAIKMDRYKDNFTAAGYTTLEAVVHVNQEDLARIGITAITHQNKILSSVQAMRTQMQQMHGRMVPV", "experiment": "Inhibition of EphA4 (unknown origin)"}, "Ephrin type-B receptor 4": {"molecular_target": "T2, Ephrin type-B receptor 4 (Homo sapiens, UniProt P54760)", "T2 sequence (P54760 whole entry)": "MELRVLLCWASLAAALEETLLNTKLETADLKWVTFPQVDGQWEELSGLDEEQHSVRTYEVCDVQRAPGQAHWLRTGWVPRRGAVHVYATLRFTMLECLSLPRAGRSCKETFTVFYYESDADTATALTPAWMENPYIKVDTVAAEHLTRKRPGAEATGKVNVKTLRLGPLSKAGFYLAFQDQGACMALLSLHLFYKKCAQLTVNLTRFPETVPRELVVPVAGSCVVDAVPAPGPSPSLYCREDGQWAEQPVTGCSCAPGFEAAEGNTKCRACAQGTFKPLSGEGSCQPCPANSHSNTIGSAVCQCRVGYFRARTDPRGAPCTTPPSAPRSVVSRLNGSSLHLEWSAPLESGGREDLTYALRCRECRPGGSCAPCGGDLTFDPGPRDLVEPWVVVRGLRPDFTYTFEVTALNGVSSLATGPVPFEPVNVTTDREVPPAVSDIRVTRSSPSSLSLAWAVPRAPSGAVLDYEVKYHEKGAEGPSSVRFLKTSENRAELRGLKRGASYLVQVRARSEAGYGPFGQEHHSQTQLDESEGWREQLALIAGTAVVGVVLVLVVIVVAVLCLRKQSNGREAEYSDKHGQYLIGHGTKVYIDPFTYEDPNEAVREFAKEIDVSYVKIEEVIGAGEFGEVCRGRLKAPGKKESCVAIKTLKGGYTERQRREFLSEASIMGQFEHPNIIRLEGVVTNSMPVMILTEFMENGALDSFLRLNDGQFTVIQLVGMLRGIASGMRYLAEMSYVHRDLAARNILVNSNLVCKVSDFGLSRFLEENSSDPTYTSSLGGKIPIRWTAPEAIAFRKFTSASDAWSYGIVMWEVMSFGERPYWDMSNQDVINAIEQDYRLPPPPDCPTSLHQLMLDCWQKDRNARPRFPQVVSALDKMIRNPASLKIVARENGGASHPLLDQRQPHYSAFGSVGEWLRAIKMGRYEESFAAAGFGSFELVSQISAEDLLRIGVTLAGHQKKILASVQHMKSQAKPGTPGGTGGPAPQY", "experiment": "Inhibition of EphB4 (unknown origin)"}, "[9]": {"molecular_target": "Tyrosine-protein kinase Lyn (Homo sapiens, UniProt P07948)", "sequence (P07948 whole entry)": "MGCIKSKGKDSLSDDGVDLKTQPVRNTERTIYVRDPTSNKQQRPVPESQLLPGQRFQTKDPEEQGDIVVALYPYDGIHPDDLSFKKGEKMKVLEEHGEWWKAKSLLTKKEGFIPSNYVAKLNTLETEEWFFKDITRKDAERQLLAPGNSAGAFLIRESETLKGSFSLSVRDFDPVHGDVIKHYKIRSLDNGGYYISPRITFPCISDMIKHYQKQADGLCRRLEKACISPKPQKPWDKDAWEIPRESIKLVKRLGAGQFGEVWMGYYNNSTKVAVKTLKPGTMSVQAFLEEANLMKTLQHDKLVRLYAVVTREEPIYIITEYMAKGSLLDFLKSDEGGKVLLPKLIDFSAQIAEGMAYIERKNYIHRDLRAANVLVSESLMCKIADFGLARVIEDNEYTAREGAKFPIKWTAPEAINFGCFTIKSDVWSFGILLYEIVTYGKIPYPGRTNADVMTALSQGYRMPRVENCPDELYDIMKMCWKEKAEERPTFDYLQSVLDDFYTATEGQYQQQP", "experiment": "Inhibition of Lyn (unknown origin)"}, "[10]": {"experiment": "Clearance in mouse at 20 mg/kg, po administered as single dose", "assay_type": "ADME, organism-based", "settings": "in vivo"}, "Mus musculus": {"system": "Mus musculus", "experiment": "Volume of distribution in mouse at 20 mg/kg, po administered as single dose", "assay_type": "ADME, organism-based", "settings": "in vivo"}, "[11]": {"experiment": "Half life in mouse at 20 mg/kg, po administered as single dose", "assay_type": "ADME, organism-based", "settings": "in vivo"}, "[12]": {"experiment": "Oral bioavailability in mouse at 20 mg/kg administered as single dose", "assay_type": "ADME, organism-based", "settings": "in vivo"}}, "data": [{"smiles": "CC(=O)Nc1cn2cc(-c3cc(NC(=O)c4ccccc4)ccc3C)ccc2n1", "values": [{"measurement": "IC50", "setting": "[1]", "result": 61, "unit": "nM"}, {"measurement": "EC50", "setting": "[2]", "result": 540, "unit": "nM"}, {"measurement": "EC50", "setting": "A-375", "result": 100, "unit": "nM"}, {"measurement": "IC50", "setting": "MAP kinase p38", "result": 1600, "unit": "nM"}, {"measurement": "Ratio IC50", "setting": "Homo sapiens [3]", "result": "3 to 20"}, {"measurement": "IC50", "setting": "[4]", "result": 11000, "unit": "nM"}, {"measurement": "Ratio IC50", "setting": "Homo sapiens [5]", "result": 18}]}, {"smiles": "CC(=O)Nc1cn2cc(-c3cc(NC(=O)c4cccc(Cl)c4)ccc3C)ccc2n1", "values": [{"measurement": "IC50", "setting": "[1]", "result": 0.3, "unit": "nM"}, {"measurement": "EC50", "setting": "[2]", "result": 480, "unit": "nM"}, {"measurement": "EC50", "setting": "A-375", "result": 70, "unit": "nM"}, {"measurement": "IC50", "setting": "MAP kinase p38", "result": 3100, "unit": "nM"}, {"measurement": "Ratio IC50", "setting": "Homo sapiens [3]", "result": 10000}, {"measurement": "IC50", "setting": "[4]", "result": 2700, "unit": "nM"}, {"measurement": "Ratio IC50", "setting": "Homo sapiens [5]", "result": 9000}]}, {"smiles": "CC(=O)Nc1cn2cc(-c3cc(NC(=O)c4cccc(C(C)(C)C)c4)ccc3C)ccc2n1", "values": [{"measurement": "IC50", "setting": "[1]", "result": 0.3, "unit": "nM"}, {"measurement": "EC50", "setting": "[2]", "result": 25, "unit": "nM"}, {"measurement": "EC50", "setting": "A-375", "result": 57, "unit": "nM"}, {"measurement": "IC50", "setting": "MAP kinase p38", "result": 2, "unit": "nM"}, {"measurement": "Ratio IC50", "setting": "Homo sapiens [3]", "result": 7}, {"measurement": "IC50", "setting": "[4]", "result": 44, "unit": "nM"}, {"measurement": "Ratio IC50", "setting": "Homo sapiens [5]", "result": 146}]}, {"smiles": "CC(=O)Nc1cn2cc(-c3cc(NC(=O)c4cccc(C(F)(F)F)c4)ccc3C)ccc2n1", "values": [{"measurement": "IC50", "setting": "[1]", "result": 0.2, "unit": "nM"}, {"measurement": "EC50", "setting": "[2]", "result": 230, "unit": "nM"}, {"measurement": "EC50", "setting": "A-375", "result": 86, "unit": "nM"}, {"measurement": "IC50", "setting": "MAP kinase p38", "result": 220, "unit": "nM"}, {"measurement": "Ratio IC50", "setting": "Homo sapiens [3]", "result": 1100}, {"measurement": "IC50", "setting": "[4]", "result": "320 to 670", "unit": "nM"}, {"measurement": "Ratio IC50", "setting": "Homo sapiens [5]", "result": 1600}, {"measurement": "solubility", "setting": "[6]", "result": "< 0.4", "unit": "µM"}, {"measurement": "IC50", "setting": "[7]", "result": 8, "unit": "nM"}, {"measurement": "IC50", "setting": "[8]", "result": 52, "unit": "nM"}, {"measurement": "IC50", "setting": "Ephrin type-A receptor 4", "result": 74, "unit": "nM"}, {"measurement": "IC50", "setting": "Ephrin type-B receptor 4", "result": 150, "unit": "nM"}, {"measurement": "IC50", "setting": "[9]", "result": 170, "unit": "nM"}, {"measurement": "CL/F", "setting": "[10]", "result": 18, "unit": "mL/min/kg"}, {"measurement": "Vd", "setting": "Mus musculus", "result": 2.15, "unit": "L/kg"}, {"measurement": "half-life", "setting": "[11]", "result": 2.45, "unit": "h"}, {"measurement": "bioavailability", "setting": "[12]", "result": 73, "unit": "%"}]}, {"smiles": "CC(=O)Nc1cn2cc(-c3cc(NC(=O)c4ccc(CN5CCN(C)CC5)c(C(F)(F)F)c4)ccc3C)ccc2n1", "values": [{"measurement": "IC50", "setting": "[1]", "result": 5, "unit": "nM"}, {"measurement": "EC50", "setting": "[2]", "result": 130, "unit": "nM"}, {"measurement": "EC50", "setting": "A-375", "result": 430, "unit": "nM"}, {"measurement": "IC50", "setting": "MAP kinase p38", "result": "< 11", "unit": "nM"}, {"measurement": "Ratio IC50", "setting": "Homo sapiens [3]", "result": "< 2"}, {"measurement": "IC50", "setting": "[4]", "result": 110, "unit": "nM"}, {"measurement": "Ratio IC50", "setting": "Homo sapiens [5]", "result": 20}, {"measurement": "solubility", "setting": "[6]", "result": 4.6, "unit": "µM"}]}, {"smiles": "CC(=O)Nc1cn2cc(-c3cc(NC(=O)c4cc(N5CCN(C)C[C@@H]5C)cc(C(F)(F)F)c4)ccc3C)ccc2n1", "values": [{"measurement": "IC50", "setting": "[1]", "result": 3, "unit": "nM"}, {"measurement": "EC50", "setting": "[2]", "result": 240, "unit": "nM"}, {"measurement": "EC50", "setting": "A-375", "result": 340, "unit": "nM"}, {"measurement": "IC50", "setting": "MAP kinase p38", "result": 2, "unit": "nM"}, {"measurement": "Ratio IC50", "setting": "Homo sapiens [3]", "result": 0.7}, {"measurement": "solubility", "setting": "[6]", "result": 122, "unit": "µM"}]}, {"smiles": "CC(=O)Nc1cn2cc(-c3cc(NC(=O)c4cc(C(F)(F)F)ccn4)ccc3C)ccc2n1", "values": [{"measurement": "IC50", "setting": "[1]", "result": 0.9, "unit": "nM"}, {"measurement": "EC50", "setting": "[2]", "result": 770, "unit": "nM"}, {"measurement": "EC50", "setting": "A-375", "result": 280, "unit": "nM"}, {"measurement": "IC50", "setting": "MAP kinase p38", "result": 660, "unit": "nM"}, {"measurement": "Ratio IC50", "setting": "Homo sapiens [3]", "result": 700}, {"measurement": "IC50", "setting": "[4]", "result": 2000, "unit": "nM"}, {"measurement": "Ratio IC50", "setting": "Homo sapiens [5]", "result": 2000}]}, {"smiles": "CC(=O)Nc1cn2cc(-c3cc(NC(=O)c4cccc(C(F)(F)F)n4)ccc3C)ccc2n1", "values": [{"measurement": "IC50", "setting": "[1]", "result": 6, "unit": "nM"}, {"measurement": "EC50", "setting": "[2]", "result": "> 10000", "unit": "nM"}, {"measurement": "EC50", "setting": "A-375", "result": 130, "unit": "nM"}, {"measurement": "IC50", "setting": "MAP kinase p38", "result": "> 25000", "unit": "nM"}, {"measurement": "Ratio IC50", "setting": "Homo sapiens [3]", "result": "> 4000"}]}]}
